Results taken from PMC7469689, “Substituted 4,5′-Bithiazoles as Catalytic Inhibitors of Human DNA Topoisomerase IIα” (Journal of Chemical Information and Modeling, 2020).
Values belong to the compound of their own block, whether it stands above or below them.

How the values were obtained:
[1] = biological target: T1, human topo IIα (Homo sapiens, UniProt P11388); assay: HTS relaxation assay of human topo IIα; format: biochemical
T1 construct: purchased Inspiralis (Norwich, U.K.)

[2] = biological target: bacterial DNA gyrase; set-up: method as in earlier work; conditions: previous virtual screening campaign; cited from earlier work
[3] = set-up: method as in doi:10.1039/jr9480002240; conditions: first protonation on the ring nitrogen; cited from earlier work
[4] = system: HepG2 cells; assay: MTS cytotoxicity assay, HepG2; format: cell-based, human; conditions: 24 h, one concentration (200, 100 or 50 μM by solubility), vs untreated control
From the text: (§1) We have determined the cytotoxicity of the compounds using the human breast cancer MCF-7 and human hepatocellular carcinoma HepG2 cancer cell lines by standard 3-(4,5-dimethylthiazol-2-yl)-5-(3-carboxymethoxyphenyl)-2-(4-sulfophenyl)-2H-tetrazolium (MTS) assay.[65] The two selected human cancer cell lines are representative and well-established systems for the cell-based evaluation of potential cancer drugs. Etoposide was again used as a positive control (PC). We performed initial screening of compounds 1–14 at one concentration.
(§2) Cytotoxic activity of studied compounds was determined in two human cancer cell lines: hepatocellular carcinoma (HepG2) and breast cancer (MCF-7) cells. Both cell lines were obtained from ATCC. […] After the exposure of cells to the tested compounds, their viability was determined using the MTS assay.
(§3) The cells were seeded at densities of 8000 and 7000 cells/well for HepG2 and MCF-7 cells, respectively, in 200 μL of complete growth medium onto 96-well microtiter plates (Nunc, Thermo Fisher Scientific, Waltham, MA) and were left overnight at 37 °C to attach. […] After 3 h incubation (37 °C, 5% CO2), the absorbance was determined at 490 nm using a spectrofluorometer Synergy MX (BioTek, Winooski, VT). […] Cell viability was calculated by comparing the optical density (OD) of the wells with exposed cells with the wells of solvent control cells, and the results are shown as percentage of cell viability ± SD. […] The EC50 values were determined utilizing nonlinear regression analysis available in GraphPad Prism 7.0 software. Statistically significant difference between control and treated groups was determined by one-way analysis of variance combined with Dunnett’s multiple comparison test.

[5] = system: MCF-7 cells; assay: MTS cytotoxicity assay, MCF-7; format: cell-based, human; conditions: 24 h, one concentration (200, 100 or 50 μM by solubility), vs untreated control
From the text: as §1, §2, §3

[6] = biological target: T1, human topo IIα; assay: ATPase activity (ATP hydrolysis) assay, pyruvate kinase/lactate dehydrogenase coupled; format: biochemical
[7] = biological target: T1, human topo IIα; assay: Human topo IIα-mediated cleavage assay; format: biochemical; conditions: for linear DNA formation in cleavage assay (in words): four concentrations
From the text: To determine whether compounds act as catalytic inhibitors, a cleavage assay was next performed for compounds 1 and 9.
We performed the assay in collaboration with Inspiralis (Norwich, U.K.).

[8] = biological target: T1, human topo IIα; assay: Human topo IIα-mediated kDNA decatenation assay; format: biochemical
Protocol: (§4) We made use of the human topo II decatenation assay kit from Inspiralis (Norwich, U.K.) to assess the ability of selected compounds to impede DNA decatenation.[89],[90] It was performed for topo IIα and topo IIβ isoforms using the protocol as described previously.[35]

[9] = biological target: T2, human topo IIβ (Homo sapiens, UniProt Q02880); assay: Human topo IIβ-mediated kDNA decatenation assay; format: biochemical
T2 construct: purchased Inspiralis (Norwich, U.K.)
Protocol: We were also interested in whether compounds can act on both isoforms of the human topo II. Thus, we performed human topo IIβ decatenation assays for compounds 1 and 9. […] (see also Tables S5 and S6 for more details).
as §4

[10] = Solubility observations; format: physicochemical; conditions: cell growth medium
[11] = 500 μM (compound 1: solubility problems, erratic readings)

T1 sequence (P11388 whole entry): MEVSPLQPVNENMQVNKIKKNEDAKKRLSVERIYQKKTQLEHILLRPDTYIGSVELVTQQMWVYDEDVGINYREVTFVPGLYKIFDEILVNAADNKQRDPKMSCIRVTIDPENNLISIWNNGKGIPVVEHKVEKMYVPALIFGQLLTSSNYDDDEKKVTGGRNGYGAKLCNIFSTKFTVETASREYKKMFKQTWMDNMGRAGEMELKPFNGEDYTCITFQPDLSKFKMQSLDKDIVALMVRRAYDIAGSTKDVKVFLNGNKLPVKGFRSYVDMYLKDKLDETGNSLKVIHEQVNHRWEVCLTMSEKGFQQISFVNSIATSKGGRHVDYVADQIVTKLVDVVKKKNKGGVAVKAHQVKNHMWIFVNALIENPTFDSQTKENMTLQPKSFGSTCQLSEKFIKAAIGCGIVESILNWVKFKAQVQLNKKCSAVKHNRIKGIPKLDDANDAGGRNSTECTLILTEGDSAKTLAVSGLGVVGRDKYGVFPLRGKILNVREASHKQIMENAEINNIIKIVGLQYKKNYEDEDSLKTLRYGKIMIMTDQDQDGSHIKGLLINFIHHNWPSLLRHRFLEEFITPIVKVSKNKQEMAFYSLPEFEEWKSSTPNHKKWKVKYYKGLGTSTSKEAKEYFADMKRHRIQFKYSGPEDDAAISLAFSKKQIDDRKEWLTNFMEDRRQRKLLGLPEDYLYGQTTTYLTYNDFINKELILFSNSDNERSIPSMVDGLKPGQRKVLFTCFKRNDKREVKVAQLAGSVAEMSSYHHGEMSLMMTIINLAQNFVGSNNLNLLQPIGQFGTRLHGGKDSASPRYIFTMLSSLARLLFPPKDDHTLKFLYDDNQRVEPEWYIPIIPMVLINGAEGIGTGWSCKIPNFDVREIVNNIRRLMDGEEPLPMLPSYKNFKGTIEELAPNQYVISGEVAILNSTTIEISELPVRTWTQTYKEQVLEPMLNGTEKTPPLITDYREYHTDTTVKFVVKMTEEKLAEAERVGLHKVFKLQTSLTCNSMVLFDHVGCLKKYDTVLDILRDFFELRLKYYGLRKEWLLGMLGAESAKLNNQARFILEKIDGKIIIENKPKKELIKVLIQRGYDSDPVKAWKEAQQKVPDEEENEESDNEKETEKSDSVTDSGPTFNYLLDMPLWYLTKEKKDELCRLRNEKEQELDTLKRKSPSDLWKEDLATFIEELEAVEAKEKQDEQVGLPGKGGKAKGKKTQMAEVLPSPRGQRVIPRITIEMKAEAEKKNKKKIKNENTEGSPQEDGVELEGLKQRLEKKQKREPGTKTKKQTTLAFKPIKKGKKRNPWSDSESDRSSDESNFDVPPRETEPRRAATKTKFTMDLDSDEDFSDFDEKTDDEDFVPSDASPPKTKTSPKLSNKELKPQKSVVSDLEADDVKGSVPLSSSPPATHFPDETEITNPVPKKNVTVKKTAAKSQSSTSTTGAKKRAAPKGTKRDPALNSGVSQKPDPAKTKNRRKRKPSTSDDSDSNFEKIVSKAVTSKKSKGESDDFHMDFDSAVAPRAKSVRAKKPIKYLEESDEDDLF
T2 sequence (Q02880 whole entry): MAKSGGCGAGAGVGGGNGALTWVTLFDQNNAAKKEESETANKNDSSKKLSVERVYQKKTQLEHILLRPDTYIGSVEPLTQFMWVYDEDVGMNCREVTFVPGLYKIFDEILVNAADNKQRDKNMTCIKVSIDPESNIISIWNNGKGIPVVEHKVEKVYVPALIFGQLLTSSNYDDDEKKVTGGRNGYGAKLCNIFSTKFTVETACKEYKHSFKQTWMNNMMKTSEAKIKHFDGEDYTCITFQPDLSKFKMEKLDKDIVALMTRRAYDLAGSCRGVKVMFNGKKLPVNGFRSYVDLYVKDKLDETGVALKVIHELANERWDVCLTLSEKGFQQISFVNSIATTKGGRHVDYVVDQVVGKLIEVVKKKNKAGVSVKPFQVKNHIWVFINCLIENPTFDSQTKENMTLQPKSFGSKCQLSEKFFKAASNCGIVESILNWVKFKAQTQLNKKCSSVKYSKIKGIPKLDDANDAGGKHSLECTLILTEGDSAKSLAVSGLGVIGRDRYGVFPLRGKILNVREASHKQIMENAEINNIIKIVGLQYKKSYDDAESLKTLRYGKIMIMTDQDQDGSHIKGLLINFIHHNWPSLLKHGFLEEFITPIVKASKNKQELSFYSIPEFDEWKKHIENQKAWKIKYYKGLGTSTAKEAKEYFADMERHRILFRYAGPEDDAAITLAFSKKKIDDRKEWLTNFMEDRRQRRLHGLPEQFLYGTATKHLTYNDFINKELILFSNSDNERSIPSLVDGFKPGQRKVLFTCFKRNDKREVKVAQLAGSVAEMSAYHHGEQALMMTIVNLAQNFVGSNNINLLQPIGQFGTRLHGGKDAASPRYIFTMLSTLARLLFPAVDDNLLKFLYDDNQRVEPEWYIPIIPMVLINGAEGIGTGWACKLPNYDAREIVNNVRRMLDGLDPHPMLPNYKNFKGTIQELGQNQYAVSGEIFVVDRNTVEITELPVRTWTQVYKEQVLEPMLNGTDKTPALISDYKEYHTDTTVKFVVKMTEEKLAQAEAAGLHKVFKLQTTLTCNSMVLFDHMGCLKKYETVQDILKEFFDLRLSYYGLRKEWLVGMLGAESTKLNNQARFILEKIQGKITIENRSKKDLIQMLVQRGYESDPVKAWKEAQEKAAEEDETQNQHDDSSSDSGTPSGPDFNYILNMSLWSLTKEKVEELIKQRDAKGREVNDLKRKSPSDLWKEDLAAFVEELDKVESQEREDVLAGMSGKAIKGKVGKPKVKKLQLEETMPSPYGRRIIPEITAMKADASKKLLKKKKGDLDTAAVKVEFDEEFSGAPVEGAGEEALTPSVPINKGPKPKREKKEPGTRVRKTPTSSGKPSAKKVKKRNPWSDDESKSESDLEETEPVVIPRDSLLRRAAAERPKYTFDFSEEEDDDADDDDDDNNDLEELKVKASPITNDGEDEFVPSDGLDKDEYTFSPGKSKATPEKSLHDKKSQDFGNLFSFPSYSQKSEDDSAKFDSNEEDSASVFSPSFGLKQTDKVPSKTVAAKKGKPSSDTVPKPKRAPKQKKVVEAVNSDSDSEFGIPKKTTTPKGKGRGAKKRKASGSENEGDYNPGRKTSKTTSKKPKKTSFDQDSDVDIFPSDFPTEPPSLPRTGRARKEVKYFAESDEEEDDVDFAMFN

SMILES: Cc1nc(N)sc1-c1csc(Nc2ccc(S(N)(=O)=O)cc2)n1 [Compound 5]
IC50 [1]: 70.1 µM
IC50 [2]: 8.2 µM

SMILES: Nc1nccs1 [2-aminothiazole]
pKa [3]: 5.4

SMILES: CCC(=O)Nc1nc(C)c(-c2csc(Nc3ccc(C(=O)O)cc3)n2)s1 [Compound 13]
IC50 [1]: 123 µM
IC50 [2]: 1.1 µM

SMILES: Cc1cc(NS(=O)(=O)c2ccc(Nc3nc(-c4sc(N)nc4C)cs3)cc2)no1 [Compound 4]
IC50 [1]: 30.1 µM

SMILES: COc1cc([C@@H]2c3cc4c(cc3[C@@H](O[C@@H]3O[C@@H]5CO[C@@H](C)O[C@H]5[C@H](O)[C@H]3O)[C@H]3COC(=O)[C@H]23)OCO4)cc(OC)c1O [etoposide, reference compound]
% Linear DNA (first column) ([7]; 3.9 μM): 22.76%
% Linear DNA (second column) ([7]; 3.9 μM): 11.88%
% Linear DNA (first column) ([7]; 31.5 μM): 33.00%
% Linear DNA (second column) ([7]; 31.5 μM): 36.26%
% Linear DNA (first column) ([7]; 125 μM): 45.35%
% Linear DNA (second column) ([7]; 125 μM): 36.91%
% Linear DNA (first column) ([7]; 500 μM): 43.03%
% Linear DNA (second column) ([7]; 500 μM): 48.40%
linear DNA formation in cleavage assay (in words) [7]: poison activity
% Decatenated Average ([9]; 3.9 μM): 100.0%
% Decatenated Assay 1 ([9]; 500 μM): 15.0%
Percentage ATPase activity Run 1 ([6]; 3.9 μM): 52.71%
Percentage ATPase activity Run 2 ([6]; 3.9 μM): 51.94%
Percentage ATPase activity Run 1 ([6]; 31.5 μM): 36.43%
Percentage ATPase activity Run 2 ([6]; 31.5 μM): 37.21%
Percentage ATPase activity Run 1 ([6]; 125 μM): 30.23%
Percentage ATPase activity Run 2 ([6]; 125 μM): 37.21%
Percentage ATPase activity Run 1 [6, 11]: 0%
Percentage ATPase activity Run 2 [6, 11]: 4.65%

SMILES: CC(=O)Nc1nc(C)c(-c2csc(Nc3ccc(C(=O)O)cc3)n2)s1 [Compound 8]
IC50 [1]: 120 µM
reduction of cell viability, initial cytotoxicity screening [4]: no or only minor effects
reduction of cell viability, initial cytotoxicity screening [5]: no or only minor effects
IC50 [2]: 5.5 µM

SMILES: Cc1nc(N)sc1-c1csc(Nc2ccc(C(=O)O)c(O)c2)n1 [Compound 6]
IC50 [1]: 37.7 µM
reduction of cell viability, initial cytotoxicity screening [4]: no or only minor effects
reduction of cell viability, initial cytotoxicity screening [5]: no or only minor effects
IC50 [2]: 67 µM

SMILES: CC(=O)Nc1nc(C)c(-c2csc(Nc3ccc(O)cc3)n2)s1 [Compound 12]
IC50 [1]: 193 µM
IC50 [2]: 30 µM

Further lines, with some results ahead:

IC50 [1]: 134 µM
SMILES: CC(=O)Nc1nc(C)c(-c2csc(Nc3cccc(C(=O)O)c3)n2)s1 [Compound 11]
reduction of cell viability, initial cytotoxicity screening [4]: no or only minor effects
reduction of cell viability, initial cytotoxicity screening [5]: no or only minor effects

IC50 [1]: 357 µM
SMILES: CC(=O)Nc1nc(C)c(-c2csc(Nc3ccccc3)n2)s1 [Compound 14]

IC50 [1]: 35.8 µM
SMILES: Cc1cc(O)ccc1Nc1nc(-c2sc(N)nc2C)cs1 [Compound 2]

Rate ATPase activity ([6]; 10 μM control): 0.14 µmol/min
SMILES: CO[C@@H]1[C@@H](OC(N)=O)[C@@H](O)[C@H](Oc2ccc3c(O)c(NC(=O)c4ccc(O)c(CC=C(C)C)c4)c(=O)oc3c2C)OC1(C)C [novobiocin, reference compound]

IC50 [1]: 33.7 µM
SMILES: CC(=O)Nc1nc(C)c(-c2csc(Nc3cccc(O)c3)n2)s1 [Compound 7]

IC50 [1]: 60 µM
% Linear DNA (first column) ([7]; 3.9 μM): 5.49%
% Linear DNA (second column) ([7]; 3.9 μM): 7.03%
% Linear DNA (first column) ([7]; 31.5 μM): 7.77%
% Linear DNA (second column) ([7]; 31.5 μM): 6.75%
% Linear DNA (first column) ([7]; 125 μM): 4.84%
% Linear DNA (second column) ([7]; 125 μM): 4.60%
% Linear DNA (first column) ([7]; 500 μM): 2.95%
% Linear DNA (second column) ([7]; 500 μM): 2.25%
SMILES: CC(=O)Nc1ccc(Nc2nc(-c3sc(NC(C)=O)nc3C)cs2)cc1 [Compound 9]
linear DNA formation in cleavage assay (in words) [7]: did not reveal a significant amount of linear DNA above the background level

IC50 [1]: 22.7 µM
inhibition at 125 µM ([8]; 125 μM): 26%
inhibition at 500 µM ([8]; 500 μM): 64%
SMILES: COc1ccc(Nc2nc(-c3sc(NC(C)=O)nc3C)cs2)cc1 [Compound 10]

IC50 [1]: 222 µM
SMILES: CC(=O)c1ccc(Nc2nc(-c3sc(N)nc3C)cs2)cc1 [Compound 3]
solubility in the cell growth medium [10]: low solubility
